From patent US8518952B2, “6 substituted 2-heterocyclylamino pyrazine compounds as CHK-1 inhibitors” (Pfizer Inc., priority 2008, dated 2013) come the findings set out here.

Where two headings read alike, the source gives them in different places.

One assay concerns the target T1, CHK1 (kinase domain) (Homo sapiens, UniProt O14757).
T1 construct: a solution containing 1 nM of CHK1 (kinase domain)
T1 sequence (O14757 9-265 limits assumed): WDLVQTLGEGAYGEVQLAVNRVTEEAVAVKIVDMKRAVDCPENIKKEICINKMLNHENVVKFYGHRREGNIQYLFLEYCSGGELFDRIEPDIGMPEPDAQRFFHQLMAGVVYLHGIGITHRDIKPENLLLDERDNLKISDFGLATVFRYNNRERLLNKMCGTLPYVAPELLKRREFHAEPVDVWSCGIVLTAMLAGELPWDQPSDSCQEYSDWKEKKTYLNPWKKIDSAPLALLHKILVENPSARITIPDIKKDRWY
Put plainly: CHK1 Ki determination, spectrophotometric coupled (pyruvate kinase/lactate dehydrogenase) assay. It is filed as biochemical. To be noted: CHK-1 kinase domain; for Ki: 150 uM ATP, 125 uM Syntide 2. As to the method: After 15 min pre-incubation, the enzymatic reaction was initiated by the simultaneous addition of Syntide 2 peptide (125 uM, final concentration) and ATP (150 uM, final concentration). The kinase-catalyzed production of ADP from ATP that accompanied phosphoryl transfer to the substrate Syntide 2 was coupled to the oxidation of NADH through the activities of pyruvate kinase and lactate dehydrogenase. NADH conversion to NAD^+ was monitored by the decrease in absorbance at 340 nm (ε=6.22 cm^−1 mM^−1) using a microplate reader from Molecular Devices Spectormax Plus (Sunnyvale, Calif.) or BMG LABTECH Inc (Offenburg, Germany).
The inhibition of CHK1 was analyzed by fitting the data to the following equation to determine Kiapp:
[formula] where [E]o and [I]o are the active enzyme and inhibitor concentration, respectively; Ki is the inhibition binding constant and Km the Michaelis-Menten constant for ATP; Vi and Vo are the rates of substrate oxidation in the presence of and in the absence of inhibitor, respectively. EC50 Determination (Cellular Assay)
(§1) Under the “Ki” column, data entries in the format of “%” are percent inhibition data where no Ki data is available. Data entry under the “EC50” column with an * are data obtained using Mia Paca-2 cells rather than HeLa cells. Data is not available where noted as n/a.

The next assay concerns HeLa cells. Put plainly: Histone H3 (Ser10) phosphorylation ELISA, abrogation of camptothecin-induced G2 arrest (CHK-1 cellular assay). It is filed as cell-based. As to the method: The Histone H3 phosphorylation ELISA assay detects cells entering mitosis and represents the primary in vitro cell-based assay used to measure the cellular potency of compounds in abrogating the G2 check point induced by DNA damage in HeLa cells or MiaPaCa cells. The candidate substances were assayed for potency in their ability to inhibit camptothecin-induced G2 arrest, as measured by an increase in Histone H3 phosphorylation on Ser10, a marker of entry into mitosis.
Tissue culture plates were seeded with HeLa cells or MiaPaCa Cells and allowed to attach overnight. The cells were then treated with camptothecin to induce DNA damage for 8 hrs. Candidate substances or diluent were then added in the presence of nocodozole for 16 hours. […] The fresh whole cell lysates were then thawed and added to the ELISA plate with shaking for 3 hours. Between all subsequent steps plates were washed 4 times with PBST. Biotinylated phospho Histone H3 (ser10) detection antibody was added for 1 hour, followed by addition of horseradish peroxidase-linked streptavidin secondary antibody for 1 hour. Color development of the antibody was performed with addition of TMB substrate and incubation for 2 minutes on a plate shaker. […] EC50 values were calculated by sigmoid curve fitting using a four-parameter analysis.
as §1

Where [1] appears, read: Homo sapiens, HeLa, HeLa cells, camptothecin 8 hrs, then compound with nocodozole 16 hours, read-out: EC50.

In general, Ki refers to the dissociation constant of the complex between target and ligand, obtained from inhibition or displacement. For orientation: EC50 means the concentration needed to bring the measured effect to its halfway point. For `CCc1cn2c(-c3cncc(N[C@@H]4C[C@@H]5CN[C@H]4C5)n3)cnc2s1` [Example 128, (1S,4R,6R)-N-[6-(2-ethylimidazo[2,1-b][1,3]thiazol-5-yl)pyrazin-2-yl]-2-azabicyclo[2.2.1]heptan-6-amine], on CHK1 (kinase domain), the affinity corresponds to a Ki of 1.79 nM. In addition, the concentration giving a half-maximal response (EC50) with HeLa cells (setting [1]) was determined as 172 nM.

At CHK1 (kinase domain), `CC(C)c1cn2c(-c3cncc(N[C@@H]4CCCN[C@H]4C)n3)cnc2s1` [Example 112, 6-(2-isopropylimidazo[2,1-b][1,3]thiazol-5-yl)-N-[(2S,3R)-2-methylpiperidin-3-yl]pyrazin-2-amine] came in with a Ki of 12.7 nM. The EC50 in the assay with HeLa cells (setting [1]) is 1110 nM.

`F[C@H]1CNC[C@@H]1Nc1cncc(-c2cnc3cc(Cl)ccn23)n1` [Example 65, 6-(7-chloroimidazo[1,2-a]pyridin-3-yl)-N-[(3S,4S)-4-fluoropyrrolidin-3-yl]pyrazin-2-amine] came in with an inhibitory constant (Ki) at CHK1 (kinase domain) of 33 nM. The 50% effective concentration (EC50) in the assay on HeLa cells (setting [1]) is 501 nM.

`C[C@@H]1CNC[C@@H]1Nc1cncc(-c2cnc3ccccn23)n1` [Example 12, 6-Imidazo[1,2-a]pyridin-3-yl-N-[(3R,4R)-4-methylpyrrolidin-3-yl]pyrazin-2-amine] yielded a Ki at CHK1 (kinase domain) of 27.5 nM. In addition, the 50% effective concentration (EC50) with HeLa cells (setting [1]) amounted to 68.4 nM.

In the case of `F[C@H]1CCNC[C@@H]1Nc1cncc(-c2cnc3ccccn23)n1` [Example 28, N-[(3S,4S)-4-fluoropiperidin-3-yl]-6-imidazo[1,2-a]pyridin-3-ylpyrazin-2-amine], the Ki on CHK1 (kinase domain) amounted to 4.77 nM. In addition, the EC50 in the assay with HeLa cells (setting [1]) worked out at 205 nM.

Regarding `CCc1cn2c(-c3cncc(N[C@@H]4CCCN[C@H]4C)n3)cnc2s1` [Example 170, 6-(2-ethylimidazo[2,1-b][1,3]thiazol-5-yl)-N-[(2S,3R)-2-methylpiperidin-3-yl]pyrazin-2-amine], the affinity on CHK1 (kinase domain), expressed as Ki, was 11.1 nM. In the assay with HeLa cells (HeLa cells, camptothecin 8 hrs, then compound with nocodozole 16 hours, read-out: EC50), the EC50 was 414 nM.

`CC1(Nc2cncc(-c3cnc4n3CCCC4)n2)CCNC1` (stereo not shown) [Example 98, N-(3-methylpyrrolidin-3-yl)-6-(5,6,7,8-tetrahydroimidazo[1,2-a]pyridin-3-yl)pyrazin-2-amine] displayed a Ki at CHK1 (kinase domain) of 1000 nM. In addition, in the assay on HeLa cells (setting [1]), the EC50 was at least 10000 nM.

On CHK1 (kinase domain), `COc1ccn2c(-c3cncc(N[C@H]4CNC[C@H]4c4ccccc4)n3)cnc2c1` [Example 152, 6-(7-methoxyimidazo[1,2-a]pyridin-3-yl)-N-[(3R,4R)-4-phenylpyrrolidin-3-yl]pyrazin-2-amine] registered an inhibition constant (Ki) of 1.47 nM. Besides, in the assay with HeLa cells (setting [1]), the EC50 was determined as 5.6 nM.

Take `CC[C@@H]1CNC[C@@H]1Nc1cncc(-c2cnc3ccccn23)n1` [Example 196, N-[(3R,4R)-4-ethylpyrrolidin-3-yl]-6-(imidazo[1,2-a]pyridin-3-yl)pyrazin-2-amine]: on CHK1 (kinase domain), the Ki is 32 nM. The half-maximal effective concentration (EC50) in the assay on HeLa cells (setting [1]) stood at 16.8 nM.

Take `C[C@@H]1NCCC[C@H]1Nc1cncc(-c2cnc3cc(Cl)ccn23)n1` [Example 104, 6-(7-chloroimidazo[1,2-a]pyridin-3-yl)-N-[(2S,3R)-2-methylpiperidin-3-yl]pyrazin-2-amine]: the affinity at CHK1 (kinase domain) corresponds to a Ki of 36.4 nM. Further, the 50% effective concentration (EC50) with HeLa cells (setting [1]) is at least 10000 nM.

`FC(F)[C@@H]1C[C@@H](Nc2cncc(-c3cnn4cc(Cl)ccc34)n2)CN1` [Example 100, 6-(6-chloropyrazolo[1,5-a]pyridin-3-yl)-N-[(3R,5S)-5-(difluoromethyl)pyrrolidin-3-yl]pyrazin-2-amine] showed an inhibition constant Ki at CHK1 (kinase domain) of 14.6 nM. Also, the EC50 in the assay with HeLa cells (setting [1]) was 3530 nM.

For the compound `CO[C@H]1CNC[C@H](Nc2cncc(-c3cnc4ccccn34)n2)C1` [Example 156, 6-(imidazo[1,2-a]pyridin-3-yl)-N-[(3R,5R)-5-methoxypiperidin-3-yl]pyrazin-2-amine], at CHK1 (kinase domain), the Ki turned out to be 28.4 nM. Besides, in the assay on HeLa cells (setting [1]), the EC50 is 314 nM.

On CHK1 (kinase domain), `CC(C)Oc1ccc2ncn(-c3cncc(N[C@@H]4CCCNC4)n3)c2c1` [Example 150, 6-(6-isopropoxy-1H-benzimidazol-1-yl)-N-[(3R)-piperidin-3-yl]pyrazin-2-amine] displayed an inhibitory constant (Ki) of 5.91 nM. Moreover, the half-maximal effective concentration (EC50) in the assay on HeLa cells (setting [1]) is 284 nM.

As to `C[C@@H]1NCCC[C@H]1Nc1cncc(-c2cnc3ccc(F)cn23)n1` [Example 168, 6-(6-fluoroimidazo[1,2-a]pyridin-3-yl)-N-[(2S,3R)-2-methylpiperidin-3-yl]pyrazin-2-amine], the Ki on CHK1 (kinase domain) worked out at 22.7 nM. Also, the EC50 in the assay with HeLa cells (setting [1]) was at least 10000 nM.

Take `C[C@@H]1CNC[C@@H]1Nc1cncc(-c2cnn3cc(Cl)ccc23)n1` [Example 116, 6-(6-chloropyrazolo[1,5-a]pyridin-3-yl)-N-[(3R,4R)-4-methylpyrrolidin-3-yl]pyrazin-2-amine]: the affinity on CHK1 (kinase domain), expressed as Ki, was 1.97 nM. The half-maximal effective concentration (EC50) in the assay on HeLa cells (setting [1]) worked out at 20.3 nM.

`c1cc2c(cc1OCC1CC1)ncn2-c1cncc(N[C@@H]2CCNC2)n1` [Example 221, 6-[5-(cyclopropylmethoxy)-1H-benzimidazol-1-yl]-N-[(3R)-pyrrolidin-3-yl]pyrazin-2-amine]: affinity at CHK1 (kinase domain) was put at a Ki of 3.34 nM. For the same compound, in the assay with HeLa cells (setting [1]), the EC50 came out at 370 nM.

The compound `FC(F)(F)CO[C@@H]1CNC[C@@H]1Nc1cncc(-c2cnc3ccccn23)n1` [Example 195, 6-(imidazo[1,2-a]pyridin-3-yl)-N-[(3S,4R)-4-(2,2,2-trifluoroethoxy)pyrrolidin-3-yl]pyrazin-2-amine] came in with an inhibitory constant (Ki) on CHK1 (kinase domain) of 73.4 nM. In addition, in the assay with HeLa cells (setting [1]), the half-maximal effective concentration (EC50) was found to be 78.5 nM.

Consider `CC(C)c1cn2c(-c3cncc(N[C@@H]4CC[C@H](C)NC4)n3)cnc2s1` [Example 114, 6-(2-isopropylimidazo[2,1-b][1,3]thiazol-5-yl)-N-[(3R,6S)-6-methylpiperidin-3-yl]pyrazin-2-amine], for which, on CHK1 (kinase domain), the affinity, expressed as Ki, was 12.3 nM. For the same compound, in the assay with HeLa cells (setting [1]), the concentration for a half-maximal effect (EC50) came to 230 nM.

Consider `C[C@@H]1CNC[C@@H]1Nc1cncc(-n2cnc3cc(-c4cnn(C)c4)ccc32)n1` [Example 34, 6-[5-(1-methyl-1H-pyrazol-4-yl)-1H-benzimidazol-1-yl]-N-[(3R,4R)-4-methylpyrrolidin-3-yl]pyrazin-2-amine], for which, at CHK1 (kinase domain), the affinity corresponds to a Ki of 3.38 nM. The EC50 in the assay on HeLa cells (setting [1]) was 29 nM.

`c1cnc2c(-c3cncc(N[C@@H]4CCCNC4)n3)cnn2c1` [Example 23, N-[(3R)-piperidin-3-yl]-6-pyrazolo[1,5-a]pyrimidin-3-ylpyrazin-2-amine]: the “percent inhibition (where no Ki data is available)” value at CHK1 (kinase domain) (inhibitor concentration not given) is recorded as 36.1%^. Besides, in the assay with HeLa cells (Homo sapiens, HeLa cells, camptothecin 8 hrs, then compound with nocodozole 16 hours, read-out: EC50), the concentration for a half-maximal effect (EC50) is at least 10000 nM.

Regarding `Fc1ccc2ncc(-c3cncc(N[C@H]4CNC[C@@H]4F)n3)n2c1` [Example 92, 6-(6-fluoroimidazo[1,2-a]pyridin-3-yl)-N-[(3S,4S)-4-fluoropyrrolidin-3-yl]pyrazin-2-amine], the affinity at CHK1 (kinase domain), expressed as Ki, was 87.5 nM. Also, the half-maximal effective concentration (EC50) with HeLa cells (setting [1]) is at least 10000 nM.

In the case of `C[C@@H]1CNC[C@@H]1Nc1cncc(-c2cnn3cc(F)ccc23)n1` [Example 202, 6-(6-fluoropyrazolo[1,5-a]pyridin-3-yl)-N-[(3R,4R)-4-methylpyrrolidin-3-yl]pyrazin-2-amine], on CHK1 (kinase domain), the affinity corresponds to a Ki of 18.4 nM. The EC50 in the assay on HeLa cells (setting [1]) is 19.4 nM.

Compound `Cc1ncc(N[C@@H]2CCNC2)nc1-c1cnc2ccccn12` [Example 296, 6-(imidazo[1,2-a]pyridin-3-yl)-5-methyl-N-[(3R)-pyrrolidin-3-yl]pyrazin-2-amine] showed a Ki at CHK1 (kinase domain) of 334 nM. Moreover, the concentration for a half-maximal effect (EC50) with HeLa cells (setting [1]) was found to be 4080 nM.

The compound `c1ccn2c(-c3cncc(N[C@@H]4CCCNC4)n3)cnc2c1` [Example 2, 6-Imidazo[1,2-a]pyridin-3-yl-N-[(3R)-piperidin-3-yl]pyrazin-2-amine] gave a Ki at CHK1 (kinase domain) of 3.24 nM. This compound also came in with an EC50 in the assay with HeLa cells (Homo sapiens, HeLa) of 34.3 nM.

At CHK1 (kinase domain), `c1cn2c(-c3cncc(N[C@@H]4CCCNC4)n3)cnc2s1` [Example 41, 6-Imidazo[2,1-b][1,3]thiazol-5-yl-N-[(3R)-piperidin-3-yl]pyrazin-2-amine] yielded an inhibitory constant (Ki) of 7 nM. Also, the EC50 with HeLa cells (setting [1]) stood at 25.8 nM.

On CHK1 (kinase domain), `CCc1cn2c(-c3cncc(N[C@H]4CNC[C@H]4CF)n3)cnc2s1` [Example 185, 6-(2-ethylimidazo[2,1-b][1,3]thiazol-5-yl)-N-[(3R,4R)-4-(fluoromethyl)pyrrolidin-3-yl]pyrazin-2-amine] had an inhibition constant Ki of 5.4 nM. Besides, the half-maximal effective concentration (EC50) with HeLa cells (setting [1]) amounted to 66.4 nM.
